Results from patent US20240190889A1, “NEW CYCLOPENTA-THIENO-DIAZEPINE DERIVATIVES AS GABA A GAMMA1 POSITIVE ALLOSTERIC MODULATORS” (Hoffmann-La Roche Inc., priority 2021, published 2024).

Target: h-GABA-A α2β2γ1 receptor expressed in Xenopus laevis oocytes (Homo sapiens (Human), UniProt P47869+Q8N1C3)
Experiment: Two-electrode voltage clamp electrophysiology in Xenopus oocytes expressing GABAA receptors
Type: cell-based
Conditions: for Efficacy (GABA)%: % modulation of GABA EC20 = 100*(Fold increase-1), compound at 30-fold Ki α2β2γ1; for Fold increase h-GABA-A α2β2γ1 oocyte @ 30-fold Ki: GABA EC20, test compound at approx. 30-fold its Ki α2β2γ1, at least 3 oocytes
From the text: Functional Expression of GABAA Receptors:
Xenopus Oocytes Preparation
Xenopus laevis oocytes at maturation stages V-VI were used for the expression of cloned mRNA encoding GABAA receptor subunits. Oocytes ready for RNA micro-injection were bought from Ecocyte, Castrop-Rauxel, Germany and stored in modified Barth's medium (composition in mM: NaCl 88, KCl 1, NaHCO3 2.4, HEPES 10, MgSO4 0.82, CaNO3 0.33, CaCl2 0.33, pH=7.5) at 20 C. until the experiment.
Xenopus Oocytes Microinjection
Oocytes were plated in 96-well plates for microinjection using the Roboinject automated instrument (MultiChannelSystems, Reutlingen, Germany). Approximately 50 nL of an aqueous solution containing the RNA transcripts for the subunits of the desired GABAA receptor subtype was injected into each oocyte. […] Oocytes were kept in modified Barth's medium (composition in mM: NaCl 88, KCl 1, NaHCO3 […], HEPES 10, MgSO4 0.82, CaNO3 0.33, CaCl2 0.33, pH=7.5) at 20° C. until the experiment.
Electrophysiological experiments were performed using the Roboocyte instrument (MultiChannelSystems, Reutlingen, Germany) on days 3 to 5 after the micro-injection of mRNA. During the experiment the oocytes were constantly superfused by a solution containing (in mM) NaCl 90, KCl 1, HEPES 5, MgCl: 1, CaCl, 1 (pH 7.4). Oocytes were impaled by two glass microelectrodes (resistance: 0.5-0.8 MS2) which were filled with a solution containing KCl 1M +K-acetate 1.5 M and voltage-clamped to −80 mV. The recordings were performed at room temperature using the Roboocyte two-electrode voltage clamp system (Multichannelsystem). After an initial equilibration period of 1.5 min GABA was added for 1.5 min at a concentration evoking approximately 20% of a maximal current response (EC20). After another rest interval of 2.5 min GABA was again added evoking a response of similar amplitude and shape. […] Current traces were recorded at a digitization rate of 10 Hz during and shortly before and after the GABA application.
Each compound and concentration was tested on at least 3 oocytes. Different oocytes were used for different compound concentrations.
For the analysis, the digitized current traces of the first and second GABA response were superimposed and, if necessary, rescaled to equal maximal amplitudes. The ratio between the two responses during the time interval of test compound application was calculated point by point. The extremum of the resulting “ratio trace” was taken as the efficacy (“Fold increase”) of the compound expressed as “% modulation of GABA EC” (100* (Fold increase-1)).

SMILES: Cc1nnc2n1-c1sc3c(c1C(c1c(F)cccc1F)=NC2)C[C@@H](C#N)C3 [Example 2, (13R)-9-(2,6-difluorophenyl)-3-methyl-16-thia-2,4,5,8-tetrazatetracyclo [8.6.0.02,6.011,15]hexadeca-1(10),3,5,8,11(15)-pentaene-13-carbonitrile]
- Efficacy (GABA)%: 35%
- Fold increase h-GABA-A α2β2γ1 oocyte @ 30-fold Ki: 1.35

SMILES: Cc1nnc2n1-c1sc3c(c1C(c1c(F)cccc1Cl)=NC2)C[C@@H](C(F)F)C3 [Example 4, (13R)-9-(2-chloro-6-fluoro-phenyl)-13-(difluoromethyl)-3-methyl-16-thia-2,4,5,8-tetrazatetracyclo [8.6.0.02,6.011,15]hexadeca-1(10),3,5,8,11(15)-pentaene]
- Efficacy (GABA)%: 51%
- Fold increase h-GABA-A α2β2γ1 oocyte @ 30-fold Ki: 1.51

SMILES: Fc1cccc(Cl)c1C1=NCc2nnc(C3CC3)n2-c2sc3c(c21)C[C@@H](C(F)F)C3 [Example 6, (13R)-9-(2-chloro-6-fluoro-phenyl)-3-cyclopropyl-13-(difluoromethyl)-16-thia-2,4,5,8-tetrazatetracyclo [8.6.0.02,6.011,15]hexadeca-1(10),3,5,8,11(15)-pentaene]
- Efficacy (GABA)%: 85%
- Fold increase h-GABA-A α2β2γ1 oocyte @ 30-fold Ki: 1.85

SMILES: Fc1cccc(F)c1C1=NCc2nnc(C3CC3)n2-c2sc3c(c21)C[C@@H](C(F)F)C3 [Example 7, (13R)-3-cyclopropyl-13-(difluoromethyl)-9-(2,6-difluorophenyl)-16-thia-2,4,5,8-tetrazatetracyclo [8.6.0.02,6.011,15]hexadeca-1(10),3,5,8,11(15)-pentaene]
- Efficacy (GABA)%: 71%
- Fold increase h-GABA-A α2β2γ1 oocyte @ 30-fold Ki: 1.71

SMILES: C[C@@H]1N=C(c2c(F)cccc2F)c2c(sc3c2C[C@@H](C(F)F)C3)-n2c(C3CC3)nnc21 [Example 8, (7S,13R)-3-cyclopropyl-13-(difluoromethyl)-9-(2,6-difluorophenyl)-7-methyl-16-thia-2,4,5,8-tetrazatetracyclo [8.6.0.02,6.011,15]hexadeca-1(10),3,5,8,11(15)-pentaene]
- Efficacy (GABA)%: 37%
- Fold increase h-GABA-A α2β2γ1 oocyte @ 30-fold Ki: 1.37

SMILES: Cc1nnc2n1-c1sc3c(c1C(c1c(F)cccc1Cl)=N[C@H]2C)C[C@@H](C(F)F)C3 [Example 9, (7S,13R)-9-(2-chloro-6-fluoro-phenyl)-13-(difluoromethyl)-3,7-dimethyl-16-thia-2,4,5,8-tetrazatetracyclo [8.6.0.02,6.011,15]hexadeca-1(10),3,5,8,11(15)-pentaene]
- Efficacy (GABA)%: 38%
- Fold increase h-GABA-A α2β2γ1 oocyte @ 30-fold Ki: 1.38

SMILES: Fc1cccc(F)c1C1=NCc2nnc(-c3cccnn3)n2-c2sc3c(c21)C[C@@H](C(F)F)C3 [Example 10, (13R)-13-(difluoromethyl)-9-(2,6-difluorophenyl)-3-pyridazin-3-yl-16-thia-2,4,5,8-tetrazatetracyclo [8.6.0.02,6.011,15]hexadeca-1(10),3,5,8,11(15)-pentaene]
- Efficacy (GABA)%: 47%
- Fold increase h-GABA-A α2β2γ1 oocyte @ 30-fold Ki: 1.47

SMILES: C[C@@H]1N=C(c2c(F)cccc2Cl)c2c(sc3c2C[C@@H](C(F)F)C3)-n2c(C3CC3)nnc21 [Example 11, (7S,13R)-9-(2-chloro-6-fluoro-phenyl)-3-cyclopropyl-13-(difluoromethyl)-7-methyl-16-thia-2,4,5,8-tetrazatetracyclo [8.6.0.02,6.011,15]hexadeca-1(10),3,5,8,11(15)-pentaene]
- Efficacy (GABA)%: 44%
- Fold increase h-GABA-A α2β2γ1 oocyte @ 30-fold Ki: 1.44

SMILES: C[C@@H]1N=C(c2c(F)cccc2Cl)c2c(sc3c2C[C@@H](C(F)F)C3)-n2c(-c3cccnn3)nnc21 [Example 12, (7S,13R)-9-(2-chloro-6-fluoro-phenyl)-13-(difluoromethyl)-7-methyl-3-pyridazin-3-yl-16-thia-2,4,5,8-tetrazatetracyclo [8.6.0.02,6.011,15]hexadeca-1(10),3,5,8,11(15)-pentaene]
- Efficacy (GABA)%: 62%
- Fold increase h-GABA-A α2β2γ1 oocyte @ 30-fold Ki: 1.62

SMILES: Cc1nnc2n1-c1sc3c(c1C(c1c(F)cccc1F)=N[C@H]2C)C[C@@H](C(F)(F)F)C3 [Example 13, (7S,13R)-9-(2,6-difluorophenyl)-3,7-dimethyl-13-(trifluoromethyl)-16-thia-2,4,5,8-tetrazatetracyclo [8.6.0.02,6.011,15]hexadeca-1(10),3,5,8,11(15)-pentaene]
- Efficacy (GABA)%: 51%
- Fold increase h-GABA-A α2β2γ1 oocyte @ 30-fold Ki: 1.51

SMILES: Cc1nnc2n1-c1sc3c(c1C(c1c(F)cccc1F)=NC2)C[C@@H](C)C3 [Example 14, (13R)-9-(2,6-difluorophenyl)-3,13-dimethyl-16-thia-2,4,5,8-tetrazatetracyclo [8.6.0.02,6.011,15]hexadeca-1(10),3,5,8,11(15)-pentaene]
- Efficacy (GABA)%: 68%
- Fold increase h-GABA-A α2β2γ1 oocyte @ 30-fold Ki: 1.68

SMILES: Cc1nnc2n1-c1sc3c(c1C(c1c(F)cccc1F)=N[C@H]2C)C[C@@H](C)C3 [Example 15, (7S,13R)-9-(2,6-difluorophenyl)-3,7,13-trimethyl-16-thia-2,4,5,8-tetrazatetracyclo [8.6.0.02,6.011,15]hexadeca-1(10),3,5,8,11(15)-pentaene]
- Efficacy (GABA)%: 45%
- Fold increase h-GABA-A α2β2γ1 oocyte @ 30-fold Ki: 1.45

SMILES: Cc1nc2n(n1)-c1sc3c(c1C(c1c(F)cccc1F)=N[C@H]2C)C[C@@H](C(F)F)C3 [Example 16, (7S,13R)-13-(difluoromethyl)-9-(2,6-difluorophenyl)-4,7-dimethyl-16-thia-2,3,5,8-tetrazatetracyclo [8.6.0.02,6.011,15]hexadeca-1(10),3,5,8,11(15)-pentaene]
- Efficacy (GABA)%: 32%
- Fold increase h-GABA-A α2β2γ1 oocyte @ 30-fold Ki: 1.32

SMILES: Cc1nc2n(n1)-c1sc3c(c1C(c1c(F)cccc1F)=N[C@H]2C)C[C@H](C(F)F)C3 [Example 17, (7S,13S)-13-(difluoromethyl)-9-(2,6-difluorophenyl)-4,7-dimethyl-16-thia-2,3,5,8-tetrazatetracyclo [8.6.0.02,6.011,15]hexadeca-1(10),3,5,8,11(15)-pentaene]
- Efficacy (GABA)%: 25%
- Fold increase h-GABA-A α2β2γ1 oocyte @ 30-fold Ki: 1.25

SMILES: C[C@@H]1N=C(c2c(F)cccc2F)c2c(sc3c2C[C@@H](C(F)F)C3)-n2nc(C(=O)NCCO)nc21 [Example 18, (7S,13R)-13-(difluoromethyl)-9-(2,6-difluorophenyl)-N-(2-hydroxyethyl)-7-methyl-16-thia-2,3,5,8-tetrazatetracyclo [8.6.0.02,6.011,15]hexadeca-1(10),3,5,8,11(15)-pentaene-4-carboxamide]
- Efficacy (GABA)%: 65%
- Fold increase h-GABA-A α2β2γ1 oocyte @ 30-fold Ki: 1.65

SMILES: C[C@@H]1N=C(c2c(F)cccc2F)c2c(sc3c2C[C@@H](C(F)F)C3)-n2nc(C(=O)N3CCS(=O)(=O)CC3)nc21 [Example 19, [(7S,13R)-13-(difluoromethyl)-9-(2,6-difluorophenyl)-7-methyl-16-thia-2,3,5,8-tetrazatetracyclo [8.6.0.02,6.011,15]hexadeca-1(10),3,5,8,11(15)-pentaen-4-yl]-(1,1-dioxo-1,4-thiazinan-4-yl)methanone]
- Efficacy (GABA)%: 43%
- Fold increase h-GABA-A α2β2γ1 oocyte @ 30-fold Ki: 1.43

SMILES: Cc1cnc2n1-c1sc3c(c1C(c1c(F)cccc1F)=N[C@H]2C)C[C@@H](C(F)F)C3 [Example 20, (7S,13R)-13-(difluoromethyl)-9-(2,6-difluorophenyl)-3,7-dimethyl-16-thia-2,5,8-triazatetracyclo [8.6.0.02,6.011,15]hexadeca-1(10),3,5,8,11(15)-pentaene]
- Efficacy (GABA)%: 70%
- Fold increase h-GABA-A α2β2γ1 oocyte @ 30-fold Ki: 1.70
